Consider eight molecules from ChEMBL document CHEMBL1201862, “PubChem BioAssay data set” (2004).

By AC50 is commonly meant the midpoint of the concentration-response curve, whichever way the signal moves.

Structures are written as SMILES. Activity calls are given as the source filed them. Some results are limits rather than exact numbers.

The target in assay [1] is T1, ATP-dependent translocase ABCB1 (Homo sapiens, UniProt P08183). The experiment in a line: ABCG2 efflux pump inhibitor potency, dose response, Ig-MXP3 cells, JC-1, flow cytometry, set 2 (AID 504566).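 Note: flow cytometry median green fluorescence of retained JC-1 dye; potency of efflux pump inhibition measured as rising substrate retention.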 Type of assay: functional. To be noted: read-out: EC50_MICROM_. (Flow cytometry measures light scatter and fluorescence of single cells or particles in a stream.)
The target of assay [2] is T1, ATP-dependent translocase ABCB1. The experiment in a line: ABCB1 efflux inhibitor potency, dose response, Jurkat-DNR cells, JC-1, flow cytometry, set 2 (AID 504569).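 Note: potency of pump inhibitors that raise cellular JC-1 green fluorescence up to the nicardipine level.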 The format is functional. Conditions: read-out: EC50_MICROM_.
Assay [3] concerns the target Kappa-type opioid receptor (Homo sapiens, UniProt P41145). The format is functional.
For a further assay, the target named is Beta-galactosidase (Escherichia coli, UniProt Q8VNN2). Description: Dose response counterscreen for EBI2 assay utilizing the enzyme, b-galactosidase. Type of assay: functional.
The subject of the next assay is Vero. The experiment in a line: Vero cell toxicity, dose response, cytotoxicity control, plate reader, cherry-pick samples (AID 687020). Type of assay: functional, cell-based. Conditions: Chlorocebus sabaeus.
In assay [4] the target is SWI/SNF-related matrix-associated actin-dependent regulator of chromatin subfamily A member 2 (Homo sapiens, UniProt P51531). Description: Luminescence-based cell-based high throughput dose response assay to identify activators of the function of SWI/SNF related, matrix associated, actin dependent regulator of chromatin, subfamily a, member 2 (SMARCA2, BRM). Type of assay: functional.

The nature of assay [5]: Counterscreen for activators of the function of SWI/SNF related, matrix associated, actin dependent regulator of chromatin, subfamily a, member 2 (SMARCA2, BRM): Luminescence-based cell-based high throughput dose response assay to identify non-selective compounds using the VP16 reporter assay. Type of assay: functional.
Assay [6] is described as follows: MDA-MB-231 cell growth inhibition, dose response, cytotoxicity control for RAD54 inhibitor project, CellTiter-Glo luminescence, cherry-pick (AID 651692). The format is functional, cell-based. Background: ATP-based viability assays read luminescence as a measure of living cells.
Assay [7] in a line: cytotoxicity toward NIH3T3 fibroblasts, dose response, counter-screen, cell-based, ATP luminescence, mouse fibroblasts (AID 2010).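 Note: cells exposed to compound for about 90 hours before reading.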 Type of assay: functional.
Assay [8] concerns the target T2, DNA repair and recombination protein RAD54-like (Homo sapiens, UniProt Q92698).
T2 sequence (Q92698 whole entry): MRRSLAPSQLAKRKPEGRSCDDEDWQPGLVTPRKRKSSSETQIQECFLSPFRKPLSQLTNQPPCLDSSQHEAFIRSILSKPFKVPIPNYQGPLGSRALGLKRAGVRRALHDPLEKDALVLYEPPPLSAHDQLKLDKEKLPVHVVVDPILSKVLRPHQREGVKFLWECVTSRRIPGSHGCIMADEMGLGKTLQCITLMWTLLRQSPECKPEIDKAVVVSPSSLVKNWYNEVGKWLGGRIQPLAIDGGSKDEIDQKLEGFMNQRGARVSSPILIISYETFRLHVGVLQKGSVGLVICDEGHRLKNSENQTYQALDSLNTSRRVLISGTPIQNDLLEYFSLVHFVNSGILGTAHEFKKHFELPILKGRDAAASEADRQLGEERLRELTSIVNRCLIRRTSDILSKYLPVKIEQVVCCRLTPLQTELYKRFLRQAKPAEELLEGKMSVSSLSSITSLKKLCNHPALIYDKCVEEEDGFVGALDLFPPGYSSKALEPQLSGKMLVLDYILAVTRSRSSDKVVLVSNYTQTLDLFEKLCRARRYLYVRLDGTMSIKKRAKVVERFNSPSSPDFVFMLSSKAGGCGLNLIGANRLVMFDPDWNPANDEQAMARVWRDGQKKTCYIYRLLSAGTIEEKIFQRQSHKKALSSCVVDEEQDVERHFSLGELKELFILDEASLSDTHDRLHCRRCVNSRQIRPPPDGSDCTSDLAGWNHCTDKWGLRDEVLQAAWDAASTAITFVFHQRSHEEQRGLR
Description: inhibitors of human RAD54 branch migration, confirmation, biochemical, fluorescence, cherry-picked samples, dose series (AID 651657). Type of assay: functional.

Assay [9] can be described thus: inhibitors of intracellular T. cruzi replication, confirmation, NIH3T3 host cells, beta-gal luminescence (AID 2044).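 Note: intracellular parasites grown in NIH/3T3 mouse fibroblasts as host cells; luminescent beta-galactosidase reporter signal from transgenic T. cruzi replicating inside host cells; inhibitors lower the luminescence signal.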 The format is functional, cell-based.
Assay [10] can be described thus: DNA binding of candidate compounds, dose response, artefact control for RAD54 inhibitor project, biochemical, fluorescence polarization, cherry-pick (AID 651673). Type of assay: functional. A general note: Fluorescence polarisation rises when a labelled molecule tumbles more slowly, as on binding a larger partner.
Assay [11] is described as follows: growth suppression of beta-catenin-knockout colon cells, dose response, cell-based, HCT116, human colon tumor (AID 1045).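 Note: HCT116 colon tumor cells with beta catenin knocked out; cells exposed to compound for 60 hours.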 The format is functional.
The nature of assay [12]: growth suppression of PTEN-null colon cells, dose response, cell-based, HCT116 PTEN knockout (AID 1047).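 Note: HCT116 colon tumor cells with PTEN knocked out; cells exposed to compound for 60 hours before readout; potency for loss of cell viability measured by luminescence.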 Type of assay: functional.
The target of the next assay is Mu-type opioid receptor (Homo sapiens, UniProt P35372). Type of assay: functional, cell-based.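 Note: U2OS cells with beta-arrestin recruitment to OPRM1 by beta-gal complementation.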
Assay [13] has as its target 5-hydroxytryptamine receptor 2A (Mus musculus, UniProt P35363). Type of assay: functional, cell-based.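 Note: CHO-K1 cells with tagged receptor and beta-arrestin; agonist potency measured as compound-induced activation of the receptor.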
The target of assay [14] is T3, SUMO-activating enzyme (Homo sapiens, UniProt Q9UBT2). The experiment in a line: SUMOylation inhibitor hit validation, confirmation, SUMOylation inhibitor project, biochemical, AlphaScreen (AID 2018). The format is functional.
For assay [15], the target named is Dual specificity protein phosphatase 3 (Homo sapiens, UniProt P51452). Description: VHR phosphatase inhibition, dose response, selectivity assay for STEP inhibitor project, biochemical (AID 602374). Type of assay: functional. Conditions: read-out: IC50_Mean.
For assay [16], the target named is T3, SUMO-activating enzyme. Description: inhibitors of in vitro SUMOylation cascade, primary screen, biochemical, HTRF, uHTS (AID 2006). Type of assay: protein-complex assay.
The target of assay [17] is T4, Small ubiquitin-related modifier 1 (Homo sapiens, UniProt P63165). The experiment in a line: inhibitors of SUMO1 partner interactions, dose response, biochemical, FRET (AID 624383). The format is functional. To be noted: read-out: IC50_Mean.
Assay [18] concerns the target Tyrosine-protein phosphatase non-receptor type 11 (Homo sapiens, UniProt Q06124). The experiment in a line: SHP2 phosphatase inhibition, dose response, selectivity assay for STEP inhibitor project, biochemical (AID 602367). The format is functional. To be noted: read-out: IC50_Mean.
Assay [19] addresses T5, Voltage-gated N-type calcium channel alpha-1B subunit/Amyloid beta A4 precursor protein-binding family A member 1 (Homo sapiens, UniProt Q00975+Q02410). Type of assay: protein assay.
For assay [20], the target named is T4, Small ubiquitin-related modifier 1. Description: inhibitors of SUMO1 peptide binding, dose response, biochemical, fluorescence polarization, uHTS hits (AID 624382). The format is functional. Conditions: read-out: IC50_Mean.
The target of assay [21] is Tyrosine-protein phosphatase non-receptor type 5 (Homo sapiens, UniProt P54829). Description: STEP phosphatase inhibitors, confirmation, biochemical, fluorescence intensity, uHTS hits (AID 602372). To be noted: read-out: IC50_Mean. Type of assay: functional.
For assay [22], the target named is T5, Voltage-gated N-type calcium channel alpha-1B subunit/Amyloid beta A4 precursor protein-binding family A member 1. Type of assay: protein assay. The source holds these as a separate data set.
In assay [23] the target is Tyrosine-protein phosphatase non-receptor type 22 (Homo sapiens, UniProt Q9Y2R2). Description: PTPN22 phosphatase inhibition, dose response, selectivity assay for STEP inhibitor project, biochemical (AID 624241). Type of assay: functional.
Assay [24] deals with Alkaline phosphatase, placental type (Homo sapiens, UniProt P05187). Description: PLAP enzyme inhibitors, confirmation, biochemical, luminescence (AID 1512). The format is functional.
Assay [25] can be described thus: ARNT/TACC3 interaction disruptors, potency, confirmation, biochemical, AlphaScreen, cherry-picked samples (AID 651703).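 Note: His-tagged ARNT PAS-B domain paired with GST-TACC3 E629A dimer coactivator fragment; potency of inhibitors that break up the complex and lower AlphaScreen signal.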 Type of assay: functional, Homo sapiens.

Alkaline phosphatase, placental type, sequence (P05187 whole entry, the tested form may be a part): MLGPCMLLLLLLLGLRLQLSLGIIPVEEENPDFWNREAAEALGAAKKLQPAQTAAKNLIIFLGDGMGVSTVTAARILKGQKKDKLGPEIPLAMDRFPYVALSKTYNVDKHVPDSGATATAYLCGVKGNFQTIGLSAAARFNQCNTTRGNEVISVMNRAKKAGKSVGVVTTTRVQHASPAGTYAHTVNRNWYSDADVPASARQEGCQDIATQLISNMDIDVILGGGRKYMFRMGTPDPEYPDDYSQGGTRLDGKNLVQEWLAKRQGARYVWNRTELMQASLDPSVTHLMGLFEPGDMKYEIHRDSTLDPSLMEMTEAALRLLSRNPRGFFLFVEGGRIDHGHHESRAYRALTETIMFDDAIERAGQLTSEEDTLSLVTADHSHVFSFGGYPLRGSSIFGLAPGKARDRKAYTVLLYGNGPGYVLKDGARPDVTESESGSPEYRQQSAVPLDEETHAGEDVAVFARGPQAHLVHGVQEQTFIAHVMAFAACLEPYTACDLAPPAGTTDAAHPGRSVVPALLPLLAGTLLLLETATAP
T1 sequence (P08183 whole entry): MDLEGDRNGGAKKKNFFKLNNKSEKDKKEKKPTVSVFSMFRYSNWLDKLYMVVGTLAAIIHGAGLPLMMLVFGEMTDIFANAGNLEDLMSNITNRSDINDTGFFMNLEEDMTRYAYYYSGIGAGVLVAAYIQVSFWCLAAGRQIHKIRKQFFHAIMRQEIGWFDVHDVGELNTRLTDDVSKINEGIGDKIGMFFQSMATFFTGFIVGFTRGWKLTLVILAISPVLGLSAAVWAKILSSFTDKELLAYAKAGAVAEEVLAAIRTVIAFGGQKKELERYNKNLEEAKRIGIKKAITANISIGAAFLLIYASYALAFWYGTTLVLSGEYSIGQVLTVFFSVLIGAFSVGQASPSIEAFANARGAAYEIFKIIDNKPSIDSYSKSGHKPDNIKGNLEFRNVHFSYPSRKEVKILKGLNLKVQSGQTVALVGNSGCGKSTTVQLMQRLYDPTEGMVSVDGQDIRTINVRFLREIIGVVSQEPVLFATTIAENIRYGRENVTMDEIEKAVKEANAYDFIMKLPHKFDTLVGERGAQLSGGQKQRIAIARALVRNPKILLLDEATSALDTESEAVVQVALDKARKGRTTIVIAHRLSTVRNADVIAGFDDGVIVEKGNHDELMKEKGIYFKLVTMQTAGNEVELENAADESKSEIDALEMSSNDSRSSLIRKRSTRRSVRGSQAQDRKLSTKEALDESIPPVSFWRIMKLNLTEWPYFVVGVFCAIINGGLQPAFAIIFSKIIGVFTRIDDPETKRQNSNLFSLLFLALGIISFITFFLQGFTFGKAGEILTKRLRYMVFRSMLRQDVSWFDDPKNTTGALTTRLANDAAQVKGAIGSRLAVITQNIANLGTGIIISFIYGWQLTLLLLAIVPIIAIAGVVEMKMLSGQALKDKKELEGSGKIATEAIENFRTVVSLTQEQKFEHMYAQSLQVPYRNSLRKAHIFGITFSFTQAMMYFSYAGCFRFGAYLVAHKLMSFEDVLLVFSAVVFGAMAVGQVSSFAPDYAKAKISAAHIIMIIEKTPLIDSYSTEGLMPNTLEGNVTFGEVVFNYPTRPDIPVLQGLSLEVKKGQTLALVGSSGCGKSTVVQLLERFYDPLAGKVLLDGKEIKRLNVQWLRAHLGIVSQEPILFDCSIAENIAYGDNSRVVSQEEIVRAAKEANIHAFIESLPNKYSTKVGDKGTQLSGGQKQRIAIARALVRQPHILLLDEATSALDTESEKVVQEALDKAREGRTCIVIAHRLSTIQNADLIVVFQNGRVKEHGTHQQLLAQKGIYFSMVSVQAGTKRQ
T4 sequence (P63165 whole entry): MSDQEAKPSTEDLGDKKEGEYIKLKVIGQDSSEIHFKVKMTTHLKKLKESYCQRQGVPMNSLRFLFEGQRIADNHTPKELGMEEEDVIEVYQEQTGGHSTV
T3 sequence (Q9UBE0 whole entry): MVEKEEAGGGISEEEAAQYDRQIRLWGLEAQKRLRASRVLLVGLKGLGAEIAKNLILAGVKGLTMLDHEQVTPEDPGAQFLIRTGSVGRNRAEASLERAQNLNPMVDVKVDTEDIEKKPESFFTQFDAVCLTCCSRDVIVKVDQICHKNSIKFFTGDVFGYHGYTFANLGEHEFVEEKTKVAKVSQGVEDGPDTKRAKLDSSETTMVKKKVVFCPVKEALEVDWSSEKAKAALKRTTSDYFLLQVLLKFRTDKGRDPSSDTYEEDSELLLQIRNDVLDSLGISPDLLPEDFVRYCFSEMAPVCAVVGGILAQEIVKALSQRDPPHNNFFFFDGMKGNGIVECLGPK
T3 sequence (Q9UBT2 whole entry): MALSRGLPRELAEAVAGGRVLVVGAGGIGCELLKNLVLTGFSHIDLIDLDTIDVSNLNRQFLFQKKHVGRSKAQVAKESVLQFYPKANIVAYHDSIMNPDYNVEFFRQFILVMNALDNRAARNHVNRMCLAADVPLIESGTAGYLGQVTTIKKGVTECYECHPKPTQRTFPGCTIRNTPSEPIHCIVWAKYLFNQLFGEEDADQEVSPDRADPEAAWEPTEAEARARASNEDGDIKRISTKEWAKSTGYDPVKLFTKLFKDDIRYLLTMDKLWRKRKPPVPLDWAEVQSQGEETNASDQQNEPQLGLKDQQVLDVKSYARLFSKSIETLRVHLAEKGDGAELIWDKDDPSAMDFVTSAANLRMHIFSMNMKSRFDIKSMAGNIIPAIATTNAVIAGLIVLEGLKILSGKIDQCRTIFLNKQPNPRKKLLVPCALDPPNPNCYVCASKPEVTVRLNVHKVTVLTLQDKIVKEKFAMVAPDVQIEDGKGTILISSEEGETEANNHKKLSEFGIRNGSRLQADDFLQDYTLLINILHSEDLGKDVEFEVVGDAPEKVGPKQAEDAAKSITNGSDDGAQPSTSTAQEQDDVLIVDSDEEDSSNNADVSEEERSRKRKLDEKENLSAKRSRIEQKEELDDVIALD
Beta-galactosidase, sequence (Q8VNN2 whole entry): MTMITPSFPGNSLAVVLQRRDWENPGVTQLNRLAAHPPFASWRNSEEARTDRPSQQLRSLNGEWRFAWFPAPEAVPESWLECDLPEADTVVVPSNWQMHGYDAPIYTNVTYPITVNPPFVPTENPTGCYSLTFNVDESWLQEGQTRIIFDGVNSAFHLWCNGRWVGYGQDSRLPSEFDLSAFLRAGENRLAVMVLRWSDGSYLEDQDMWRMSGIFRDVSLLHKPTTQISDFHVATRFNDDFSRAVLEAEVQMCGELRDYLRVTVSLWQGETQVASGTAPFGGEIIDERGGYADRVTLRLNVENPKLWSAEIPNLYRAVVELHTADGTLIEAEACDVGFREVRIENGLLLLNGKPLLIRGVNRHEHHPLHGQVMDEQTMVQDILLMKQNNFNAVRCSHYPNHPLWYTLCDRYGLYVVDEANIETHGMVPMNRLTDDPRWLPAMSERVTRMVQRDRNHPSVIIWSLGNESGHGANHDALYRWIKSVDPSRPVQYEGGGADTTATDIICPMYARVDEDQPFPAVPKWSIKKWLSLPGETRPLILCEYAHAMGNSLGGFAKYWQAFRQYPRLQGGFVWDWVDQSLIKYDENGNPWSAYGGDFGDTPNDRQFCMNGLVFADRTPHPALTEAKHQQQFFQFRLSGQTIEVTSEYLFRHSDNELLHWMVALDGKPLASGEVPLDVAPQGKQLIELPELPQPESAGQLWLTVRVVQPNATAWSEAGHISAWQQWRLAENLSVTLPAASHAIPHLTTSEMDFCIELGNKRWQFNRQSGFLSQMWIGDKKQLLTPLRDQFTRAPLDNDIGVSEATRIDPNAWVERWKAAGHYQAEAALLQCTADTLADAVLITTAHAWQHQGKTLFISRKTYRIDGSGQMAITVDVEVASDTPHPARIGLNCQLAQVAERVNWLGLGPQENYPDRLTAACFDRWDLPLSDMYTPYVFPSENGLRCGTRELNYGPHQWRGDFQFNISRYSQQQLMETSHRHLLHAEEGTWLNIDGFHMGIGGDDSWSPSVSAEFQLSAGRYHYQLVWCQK
5-hydroxytryptamine receptor 2A, sequence (P35363 whole entry): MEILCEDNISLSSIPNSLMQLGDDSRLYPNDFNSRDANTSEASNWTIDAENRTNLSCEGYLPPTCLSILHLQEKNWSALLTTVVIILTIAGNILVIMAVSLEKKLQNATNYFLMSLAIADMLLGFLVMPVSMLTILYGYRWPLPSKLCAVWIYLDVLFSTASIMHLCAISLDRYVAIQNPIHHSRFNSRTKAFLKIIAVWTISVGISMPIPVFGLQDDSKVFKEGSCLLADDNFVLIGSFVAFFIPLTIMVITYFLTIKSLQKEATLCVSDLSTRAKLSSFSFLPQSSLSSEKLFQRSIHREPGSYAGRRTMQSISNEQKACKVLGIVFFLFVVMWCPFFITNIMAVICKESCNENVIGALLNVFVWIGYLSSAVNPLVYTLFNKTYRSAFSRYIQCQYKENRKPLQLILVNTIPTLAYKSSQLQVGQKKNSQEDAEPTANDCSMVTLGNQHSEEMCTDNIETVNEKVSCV
Tyrosine-protein phosphatase non-receptor type 11, sequence (Q06124 whole entry): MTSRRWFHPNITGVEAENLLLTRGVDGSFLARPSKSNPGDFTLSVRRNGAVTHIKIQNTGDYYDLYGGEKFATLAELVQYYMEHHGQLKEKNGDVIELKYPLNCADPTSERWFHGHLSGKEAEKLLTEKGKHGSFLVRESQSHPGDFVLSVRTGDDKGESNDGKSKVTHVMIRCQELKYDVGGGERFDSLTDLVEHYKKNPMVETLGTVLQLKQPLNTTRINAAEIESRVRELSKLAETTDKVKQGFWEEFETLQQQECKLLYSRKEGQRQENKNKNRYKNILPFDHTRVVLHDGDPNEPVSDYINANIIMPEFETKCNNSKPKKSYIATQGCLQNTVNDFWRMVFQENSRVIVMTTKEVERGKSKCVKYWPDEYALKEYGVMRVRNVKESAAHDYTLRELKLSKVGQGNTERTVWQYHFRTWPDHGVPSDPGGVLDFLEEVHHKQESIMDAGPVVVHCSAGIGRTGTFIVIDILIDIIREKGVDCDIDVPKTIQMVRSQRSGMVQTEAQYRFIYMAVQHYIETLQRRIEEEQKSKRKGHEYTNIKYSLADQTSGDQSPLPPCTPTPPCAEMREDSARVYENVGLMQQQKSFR

Consider `CC(=O)N1CCN(c2cc(-c3ccccc3)nc3cc(-c4cccc(Cl)c4)nn23)CC1`, for which the EC50 is 5.55 µM (active) in assay [1] and 4.1 µM (active) in assay [2].
`CC1(C)CC(=O)C(=CNc2ncccc2/N=C/C2=C(O)CC(C)(C)CC2=O)C(=O)C1`: the values for the IC50 (in assay [3]; at Beta-galactosidase) were < 980 nM (inactive) and 1.23 µM (active), respectively.
As for `COC(=O)N1CCCCC1c1cc(C(=O)Nc2ccc(OC)cc2C)no1` (stereo not drawn), in the assay on Vero, the AC50 is 34.5 µM (active).
As for `CC(=O)c1ccc(OCCCC(=O)OCc2nnc(-c3ccc(Cl)cc3)o2)cc1`, the EC50 in assay [4] and in assay [5] was > 91.1 µM (inactive) each time.
In the case of `COc1ccc(Nc2nc(N3CCCC3)nc3ccccc23)c(OC)c1`, the values for the half-maximal activity concentration (AC50) in [6], in assay [8] and in assay [10] were 35.6 µM (active), 6.47 µM (active) and 63.3 µM (active), respectively. Besides, the EC50 is 22.2 µM (active) in [7], 627 nM (active) in [9], 1.2 µM (active) in [11] and 1.97 µM (active) in assay [12].
For the molecule `COc1ccc(CN2CCN(c3ncccn3)CC2)c(C)c1C`, the values for the EC50 (on Mu-type opioid receptor; in assay [13]) were 92.5 µM (inactive) and 263 nM (active), respectively.
Take `CCCc1cc(=O)oc2cc(OCC(=O)Nc3ccc(S(N)(=O)=O)cc3)ccc12`: the IC50 was 6.11 µM (active) on SUMO-activating enzyme [14]; 5.69 µM (active) in assay [15]; 11.5 µM (active) on SUMO-activating enzyme [16]; 6.44 µM (active) in [17]; 1.15 µM (active) in assay [18]; 14.2 µM (active) in assay [19]. For the same molecule, the IC50 in [20] is > 66.6 µM (inactive); in assay [21] it was 15.5 µM (active); in assay [22] it was > 50 µM (inactive); in assay [23] it was 31 µM (inactive).
In the case of `COc1ccc(-c2cc(NCc3ccccn3)n3ncnc3n2)cc1`, the IC50 in [24] is > 100 µM (inactive). In assay [25], the AC50 was 91.5 µM (active).
